Test system: mouse tumor MM46 breast cancer cells
Assay: Tumor growth inhibition test in mice
Assay type: in vivo
Details: Positive Control group: 6.25 mg/kg intraperitoneally on days 7, 11 and 14
Protocol: The required weighed amounts of Acacia Hot Water Extract No. 1 described in Production Example 2 were dispersed in water at 60° C. to prepare test drinks 1, 2 and 3 containing Acacia Hot Water Extract No. 1 at 7.8 mg/mL, 15.6 mg/mL and 31.3 mg/mL, respectively.
The required weighed amounts of Acacia Hot Water Extract No. 1 described in Production Example 2 were mixed with commercially available feed to prepare test feeds 2 and 3 containing Acacia Hot Water Extract No. 1 at 15.6 mg/g and 31.3 mg/g, respectively.
Female C3H/HeN mice were assigned to a Control 1 group, Test 1 group, Test 2 group, Test 3 group and Positive Control group as shown in the table below.
First, 2×10^6 mouse tumor MM46 breast cancer cells were transplanted subcutaneously into the inguinal region of the mice grouped as indicated above according to the method described in Abe, S. et al., Gann 73, 91-96 (1982) and Ohasi, K. et al., Yakugaku Zasshi 113, 396-399 (1993).
Tap water was given to the Control 1 group while Test Drinks 1 to 3 were given to the Test 1 to Test 3 groups, respectively, as drinking water, starting on the day of tumor transplantation. In addition, tap water was given to the Positive Control group, and this group was also intraperitoneally administered 6.25 mg/kg of lentinan on days 7, 11 and 14 following tumor transplantation.
Consequently, Test Drink 2 and Test Drink 3 were replaced with tap water on day 7 of tumor transplantation. In addition, five mice each of the Test 2 group were reassigned to a Control 2 group and a Test 2a group, while five mice each of the Test 3 group were reassigned to a Control 3 group and a Test 3a group. Animals of the Control 2 group and Control 3 group were continued to be fed the control feed. The Test 2a group and Test 3a group were fed Test Feed 2 and Test Feed 3, respectively, instead of the control feed.
Growth of the tumor transplanted subcutaneously into the inguinal regions of the mice was observed by palpation for 4 weeks every 3 or 4 days, and tumor diameter was also measured. In addition, survival times (days) and body weights were also measured. The tumors were excised and their wet weights were measured following completion of the test.
Furthermore, the Student's t-test was used for statistical testing.

Substance: lentinan
- Average tumor diameter (day 14 after transplantation): 7.4 ± 6.58 mm
- reduction rate versus Control 1 group (average tumor diameter) (day 14 after transplantation): 43.5%
- Average tumor diameter (day 28 after transplantation): 14.0 ± 6.12 mm
- reduction rate versus Control 1 group (average tumor diameter) (day 28 after transplantation): 41.2%
